Assay results: the supplement of paper PMC4932681
Structures can show the parent of a compound that is named as a salt.

Columns and labels:
Assay in all cases: viability inhibition at highest dose (% inhibition); higher = more growth inhibition
MCF-7 = settings: 72 h
In short: (§1)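 Drug sensitivity score, relative IC50 as the curve midpoint, and top-dose inhibition were derived from logistic dose–response fits in the Breeze pipeline. These fits used CellTiter-Glo viability, read on a PHERAstar and normalised to vehicle-only and positive controls. Breast cancer cell lines and resistant derivatives had been incubated for 72 h at 37 °C in 384-well plates holding library drugs at five concentrations spanning a 10 000-fold range. Resistant lines were grown in medium with 1 μM of the selecting drug.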

ZR-75-1 Tam1 = settings: 4-OH-tamoxifen in medium 1 µM; 72 h
In short: as §1

T-47D Tam1 = settings: 4-OH-tamoxifen in medium 1 µM; 72 h
In short: as §1

T-47D Tam2 = settings: 4-OH-tamoxifen in medium 1 µM; 72 h
In short: as §1

BT-474 Tam2 = settings: 4-OH-tamoxifen in medium 1 µM; 72 h
In short: as §1

ZR-75-1 Tam2 = settings: 4-OH-tamoxifen in medium 1 µM; 72 h
In short: as §1

BT-474 Tam1 = settings: 4-OH-tamoxifen in medium 1 µM; 72 h
In short: as §1

MCF-7 Tam1 = settings: 4-OH-tamoxifen in medium 1 µM; 72 h
In short: as §1

T-47D = settings: 72 h
In short: as §1

BT-474 = settings: 72 h
In short: as §1

ZR-75-1 = settings: 72 h
In short: as §1

Row | Structure (SMILES) | viability inhibition at highest dose (MCF-7; 4-OH-tamoxifen in medium 0 µM) | viability inhibition at highest dose (MCF-7; 4-OH-tamoxifen in medium 1 µM) | viability inhibition at highest dose (ZR-75-1 Tam1) | viability inhibition at highest dose (T-47D Tam1) | viability inhibition at highest dose (T-47D Tam2) | viability inhibition at highest dose (BT-474 Tam2) | viability inhibition at highest dose (ZR-75-1 Tam2) | viability inhibition at highest dose (BT-474 Tam1) | viability inhibition at highest dose (MCF-7 Tam1) | viability inhibition at highest dose (T-47D; 4-OH-tamoxifen in medium 0 µM) | viability inhibition at highest dose (T-47D; 4-OH-tamoxifen in medium 1 µM) | viability inhibition at highest dose (BT-474; 4-OH-tamoxifen in medium 0 µM) | viability inhibition at highest dose (BT-474; 4-OH-tamoxifen in medium 1 µM) | viability inhibition at highest dose (ZR-75-1; 4-OH-tamoxifen in medium 0 µM) | viability inhibition at highest dose (ZR-75-1; 4-OH-tamoxifen in medium 1 µM)
1 | CO[C@H]1C[C@@H]2CC[C@@H](C)[C@@](O)(O2)C(=O)C(=O)N2CCCC[C@H]2C(=O)O[C@H]([C@H](C)C[C@@H]2CC[C@@H](O)[C@H](OC)C2)CC(=O)[C@H](C)/C=C(\C)[C@@H](O)[C@@H](OC)C(=O)[C@H](C)C[C@H](C)/C=C/C=C/C=C/1C [Sirolimus (Rapamycin)] (drug 1000 nM) | 45.5 | 35.8 | 33.3 | 34.8 | 26.9 | 24.1 | 36.3 | 21.7 | 7.86 | 28.5 | 13.8 | 17.8 | 13.2 | 38.1 | 31
2 | CC(C)n1nc(-c2ccc3oc(N)nc3c2)c2c(N)ncnc21 [INK128] (drug 1000 nM) | 70.3 | 52.4 | 52.7 | 58.8 | 36.7 | 44.1 | 66 | 72.6 | 35.9 | 66.7 | 46.4 | 36.7 | 62.9 | 61.2 | 51.9
3 | Cn1c(Nc2ccc(C(F)(F)F)cc2)nc2cc(Oc3ccnc(-c4ncc(C(F)(F)F)[nH]4)c3)ccc21 [RAF265] (drug 1000 nM) | -2.02 | -1.12 | -1.02 | 22.5 | 2.98 | 9 | 11.6 | 4.22 | -5.31 | 12.4 | -5.82 | -9.23 | 7.76 | 2.38 | -4.76
4 | Nc1ncn([C@H]2C[C@H](O)[C@@H](CO)O2)c(=O)n1 [Decitabine (Dacogen)] (drug 10000 nM) | 17.6 | 2.36 | -4.61 | -9.55 | -3.18 | -4.48 | -2.91 | -15.7 | -12.3 | -15 | -11.2 | -1.68 | -2.07 | -8.36 | -6.99
5 | CC1(C)CCC(c2ccc(Cl)cc2)=C(CN2CCN(c3ccc(C(=O)NS(=O)(=O)c4ccc(N[C@H](CCN5CCOCC5)CSc5ccccc5)c(S(=O)(=O)C(F)(F)F)c4)cc3)CC2)C1 [Navitoclax (ABT-263)] (drug 10000 nM) | 27 | 14.2 | -1.41 | 38.4 | 23.7 | 32.7 | -6.95 | 33.3 | 5 | 0.832 | 3.74 | 6.74 | 47.7 | -9.03 | -6.23
6 | CCCC(CCC)C(=O)O [Valproic acid] (drug 10000 nM) | -31.2 | -5.39 | 3.1 | 1.44 | 24.2 | -2.85 | -3.03 | 4.24 | 1.78 | -15.5 | 12.5 | -9.64 | -2.48 | -14.3 | 1.2
7 | Clc1ccc(Nc2nnc(Cc3ccncc3)c3ccccc23)cc1 [Vatalanib] (drug 10000 nM) | -22.9 | 8.24 | -0.807 | 26.3 | 7.23 | 10.3 | 6.59 | 10.7 | -1.69 | -9.2 | -8.84 | -9.23 | 0.775 | -6.3 | -2.47
8 | COc1ccccc1S(=O)(=O)Nc1ccc2c(c1)CN(C)C(=O)N2 [PFI-1] (drug 10000 nM) | 44.2 | 38.1 | 23.8 | 36.4 | 32.8 | 30.3 | 25.8 | 25.7 | 4.98 | 26.2 | 14 | 32.8 | 25.7 | 13.1 | 25.2
9 | NCC(=O)CCC(=O)O [Aminolevulinic acid] (drug 10000 nM) | -30.6 | 7.57 | -7.01 | -0.747 | 5.5 | -2.75 | -5.25 | 4.33 | -9.27 | -13.1 | -10.6 | -15.6 | -12.3 | -15.3 | -7.45
10 | CC[C@@H]1C(=O)N(C)c2cnc(Nc3ccc(C(=O)NC4CCN(C)CC4)cc3OC)nc2N1C1CCCC1 [BI 2536] (drug 1000 nM) | 39 | 29.9 | 26.8 | 30.3 | 34 | 11.8 | 21.6 | 27.9 | 7.18 | 29.2 | 19.9 | 26 | 48.3 | 12.7 | 26.7
11 | C=C1C[C@@H]2[C@H](CC[C@]3(C)C(=O)CC[C@@H]23)[C@@]2(C)C=CC(=O)C=C12 [Exemestane] (drug 10000 nM) | 19.4 | 7.88 | 4.25 | 2.32 | 19.2 | -0.955 | -3.66 | 0.0289 | 3.68 | -12.5 | -2.8 | 0.814 | 0.09 | -15.1 | -6.66
12 | Cn1cnc2c(F)c(Nc3ccc(Br)cc3F)c(C(=O)NOCCO)cc21 [MEK-162 (ARRY-162)] (drug 1000 nM) | 12.2 | 20.8 | -1.39 | 17.2 | 14.1 | -1.22 | 7.88 | 2.68 | 10.4 | -6.66 | -10.7 | -13.3 | 6.81 | -6.09 | -7.06
13 | CC[C@]1(O)C[C@@H]2CN(CCc3c([nH]c4ccccc34)[C@@](C(=O)OC)(c3cc4c(cc3OC)N(C)[C@H]3[C@@](O)(C(=O)OC)[C@H](OC(C)=O)[C@]5(CC)C=CCN6CC[C@]43[C@@H]65)C2)C1 [Vinblastine] (drug 1000 nM) | 51.4 | 57.6 | 30.2 | 55.2 | 57.8 | 91.8 | 35.9 | 88 | 19.6 | 14.7 | 22.2 | 43.3 | 87.4 | 24.6 | 34.4
14 | Nc1nc(F)nc2c1ncn2[C@@H]1O[C@H](CO)[C@@H](O)[C@@H]1O [Fludarabine] (drug 10000 nM) | -24.7 | 10 | -3.09 | 20.4 | -0.0717 | 4.57 | -3.77 | 2.46 | -4.15 | -8 | -12.2 | -6.6 | -12.5 | -0.221 | -4.24
15 | c1ccc([C@H]2CN3CCSC3=N2)cc1 [Levamisole, (Tetramisole hydrochloride)] (drug 10000 nM) | -9.38 | 1.67 | -0.419 | -4.38 | 3.27 | 4.72 | 4.7 | -1.57 | -9.5 | 1.99 | -2.51 | -0.587 | -3.62 | 1.62 | 3.25
16 | CC[C@H](CO)Nc1nc(NCc2ccccc2)c2ncn(C(C)C)c2n1 [Seliciclib (Roscovitine)] (drug 10000 nM) | 29 | 17.2 | -5.94 | 24.8 | 23.6 | 3.77 | -4.53 | -2.39 | 13.8 | -4.76 | -17.1 | -9.62 | -8.52 | -12.8 | -9.91
17 | Nc1nc2[nH]cc(CCc3ccc(C(=O)N[C@@H](CCC(=O)O)C(=O)O)cc3)c2c(=O)[nH]1 [Pemetrexed] (drug 10000 nM) | -15.5 | 14.3 | 1.51 | -2.82 | 9.3 | 4.1 | -6.3 | -2.78 | -1.81 | -12.4 | 8.3 | -2.99 | -11.2 | -12.7 | -4.01
18 | C=CC(=O)Nc1cc2c(Nc3ccc(F)c(Cl)c3)ncnc2cc1OCCCN1CCOCC1 [Canertinib] (drug 10000 nM) | 64.2 | 71.1 | 37.1 | 46.6 | 63.2 | 93.5 | 44.3 | 90 | 28 | 38.9 | 24.2 | 80.1 | 92.3 | 41.4 | 35.5
19 | CN1CCN(c2ccc3nc(-c4c(N)c5c(F)cccc5[nH]c4=O)[nH]c3c2)CC1 [Dovitinib (CHIR-258)] (drug 10000 nM) | -32.5 | -8.7 | 0.00734 | -4.27 | 4.9 | -10.4 | -6.37 | -12.6 | -5.66 | -16.4 | -8.28 | -10.4 | -18.2 | -10.6 | -9.07
20 | Nc1ccn([C@@H]2O[C@H](CO)[C@@H](O)[C@@H]2O)c(=O)n1 [Cytarabine] (drug 10000 nM) | 29.1 | 12 | 28.3 | 30.6 | -16.3 | 1.43 | 27.4 | 22.1 | 6.46 | 36.9 | 6.47 | -5.7 | 11 | 39.3 | 13
21 | CN(N=O)C(=O)N[C@@H](C=O)[C@@H](O)[C@H](O)[C@H](O)CO [Streptozocin] (drug 10000 nM) | -9.93 | -7.59 | 1.17 | -3.33 | 9.65 | -7.21 | -12.2 | -7.72 | -3.41 | -10.8 | -3.95 | -7.13 | 3.07 | -9.82 | 2.7
22 | Cn1nnc2c(C(N)=O)ncn2c1=O [Temozolomide] (drug 10000 nM) | -13.8 | -0.417 | 6.09 | 1.44 | -13 | -6.27 | 0.839 | 19.9 | 1.07 | 0.803 | 1.13 | -5.95 | 22.9 | 11.9 | -5.2
23 | O=C1CN2Cc3c(ccc(Cl)c3Cl)N=C2N1 [Anagrelide] (drug 10000 nM) | -21.2 | 2.74 | 0.528 | 8.7 | -2.05 | 3.44 | -5.88 | 2.18 | -9.28 | -25.6 | -12.9 | -9.3 | -22.2 | -12.6 | -4.05
24 | Nc1nc(Cl)nc2c1ncn2[C@H]1C[C@H](O)[C@@H](CO)O1 [Cladribine] (drug 1000 nM) | -15.2 | 6.39 | 21 | 25.8 | 11.4 | -11.6 | 20 | -9.7 | -0.292 | -1.69 | -2.3 | -15.8 | -9.47 | 15.2 | 15.8
25 | CCS(=O)(=O)c1cccc(-c2cc(C(=O)NC3CCN(C)CC3)c(C)c3[nH]c4ncc(C)cc4c23)c1 [TAK-901] (drug 1000 nM) | 16.5 | 24.8 | -9.15 | 66.5 | 34.6 | 25.1 | -10.7 | 30.7 | 9.8 | 40.7 | 18.2 | -6.02 | 30.4 | -12.6 | -15.9
26 | C[C@@H]1C=C2C(=O)O[C@@H]3CC[C@H](C1)[C@]23O [Galiellalactone] (drug 50000 nM) | 72.3 | 14.4 | 4.34 | 41.4 | 40.6 | 3.76 | 1.46 | 50.9 | -3.64 | 59.8 | 54.7 | -0.142 | 54.5 | -10.5 | -3.25
27 | O=C(Cc1ccc(-c2ccc(OCCN3CCOCC3)cc2)cn1)NCc1ccccc1 [KX2-391] (drug 10000 nM) | 44.4 | 55.3 | 43.1 | 74.1 | 47.3 | 92.2 | 47.8 | 92.7 | 16.8 | 24.2 | 25.3 | 41 | 82.9 | 41.1 | 38.6
